System: thalamo-TRN synapses
Test: Optogenetically evoked EPSCs in patched TRN neurons, thalamo-TRN pathway
Format: cell-based, mice
Details: patched TRN neurons, LY379268 bath application
Description: For conducting slice electrophysiology analysis, whole-cell patch-clamp recordings were performed using horizontal slices for the rebound bursting assays and angled-coronal thalamocortical slices for the synaptic optogenetics experiments (Agmon et al., 1991). 21-35 day old male C57BL6 mice and Ptchd1 Y/− (knockout) mice were used. Animals were transcardially perfused under isoflurane anesthesia with an ice-cold cutting solution (194 mM Sucrose, 30 mM NaCl, 4.5 mM KCl, 1.2 mM NaH2PO4, 10 mM Glucose, 2 mM MgCl2, 0.2 mM CaCl2, and 26 mM NaHCO3). Mice were then decapitated and the brains were carefully dissected out. Both cerebellum and olfactory bulb were removed from the brain and were placed and glued onto the stage of a Leica Vibratome with the ventral surface down and the pial surface towards the blade. 250 micron thick slices containing the TRN were then collected and recovered in regular artificial cerebrospinal fluid (aCSF; 119 mM NaCl, 2.3 mM KCl, 1 mM NaH2PO4; 11 mM Glucose, 1.3 mM MgCl2, 2.5 mM CaCl2), 26 mM NaHCO3) heated to 32° C. for 10 minutes and then at room temperature for at least 1 hr. All buffers were continuously bubbled with 95% O2/5% C02. Slices were then transferred to a submersion recording chamber where they were perfused with aCSF at a rate of 2 ml/min at room temperature. Patch recording pipettes were pulled using a Flaming/Brown micropipette puller (Sutter Instruments) and Borosilicate glass (KG33, King Precision Glass). The DC resistances were ˜4-6 MΩ. Potassium methanesulfonate based internal solution (140 mM KMeSO3; 10 mM KCl; 10 mM HEPES; 0.1 mM EGTA; 4 mM Mg-ATP; 0.2 mM Na-GTP; 10 mM hosphocreatine) was used. Neurons were visualized using infrared differential interference contrast (IR-DIC) microscopy (Olympus, BX51W1) with an upright microscope digital camera. […]
After allowing 1-2 weeks for mcherry-dflox.hChR2.EF1.AAV1 expression, acute somatosensory thalamocortical or horizontal brain slices were freshly obtained for in vitro recording and optogenetic stimulation (250 um thick, thalamocortical slices containing TRN from angled-coronal sections; Agmon and Connors, 1991) for optogenetic analysis. In brief, patch clamp recordings in voltage clamp configuration were performed while the Cortico-TRN or Thalamic-TRN pathway was activated by applying a blue LED (400-450 nm) light pulses (Lumen 300-LED Fluorescence Excitation Illumination System). For synaptic stimulation, neurons were held at −70 mV while 0.1-1.5 ms flashes were delivered directly to the recorded cell soma delivered through the 40× water immersion objective. […]

Compound: N[C@@]1(C(=O)O)COC2C(C(=O)O)C21 (stereo in doubt) [LY379268, (1R,4R,5S,6R)-4-Amino-2-oxabicyclo[3.1.0] hexane-4,6-dicarboxylic acid]
- thalamo-TRN evoked EPSCs: did not affect the thalamo-TRN evoked EPSCs

Reference: patent US20220313650A1, “METHODS FOR TREATING NEURODEVELOPMENTAL DISORDERS” (The Broad Institute, Inc., priority 2019, published 2022)
